This note sets out measurements from the NIST ThermoML archive (doi:10.1021/je400029t).

For series [1] the following is noted: Crystal; DTA.
A short description of series [2]: Molar enthalpy of transition or fusion. The settings on record: Crystal; DSC.

± gives the expanded uncertainty stated by the source.

On to `COc1ccc(C(=O)O)cc1OC` [3,4-dimethoxybenzoic acid], for which the Normal melting temperature in series [1] worked out at 179.97 ± 0.53 °C. In addition, the “Molar enthalpy of transition or fusion” value in series [2] amounted to 7.07 ± 0.311 kcal/mol.
